Assay results taken from article PMC11589483, “Preparation and anti-colon cancer effect of a novel curcumin analogue (CA8): in vivo and in vitro evaluation” (Frontiers in Pharmacology, 2024).
Where two headings read alike, the source gives them in different places. Values belong to the molecule of their own block, whether it stands above or below them.

What was measured:
[1] = tested on: breast cancer cells MCF-7; test: MTT antiproliferative assay, MCF-7; type: cell-based; conditions: Homo sapiens
Experimental: (§1) The human cancer cell lines A549, HepG2, MCF-7, Caco-2, and HeLa and the normal human liver cell line LO2 were all obtained from Shanghai Cell Bank of China. All cells were cultured in RPMI 1640 or DMEM supplemented with 10% fetal bovine serum, 100 U/mL penicillin, and 100 μg/mL streptomycin and incubated at 37°C under 5% CO2 (HEPA incubator class100 Thermo company). The medium was replaced three times a week. Cells used in all were in the exponential growth phase.
(§2) The cell inhibition rate was evaluated using the MTT assay. Briefly, cells were seeded in a 96-well plate at a density of 3–4 × 10^3 cells per well and incubated at 37°C for 24 h. The MCACs to be tested were dissolved in dimethyl sulfoxide (DMSO, Merck, Germany) and diluted to five concentrations (3.75, 7.5, 15, 30, 60 μM/L) with RPMI 1640 medium, with each dose analyzed in quadruplicate. The concentration of DMSO was always maintained below 1‰, a concentration that is nontoxic to cells. After incubation for 24 or 48 h, MTT reagent (5 mg/mL) was added to each well and the samples were incubated for 3 h at 37°C in the dark. The absorbance of formazan crystals dissolved in 150 µL of DMSO was measured at 570 nm using a microplate reader to identify the cytotoxic effect of the analogues.

Caco-2 cells [2] = test: Apoptosis assay (Annexin V-FITC/propidium iodide flow cytometry); type: cell-based, human; conditions: 4, 8, 16 μM, 24 h
Experimental: The apoptotic effect of CA8 was assessed in Caco-2 cells according to the kit instructions. First, Caco-2 cells were treated with CA8 at dose of 4, 8, or 16 μM/L for 24 h. The cells were harvested and suspended in 500 μL annexin-binding buffer. Subsequently, the cells were stained with Annexin V-FITC for 15 min and then incubated with propidium iodide for 5 min at room temperature in the dark. Finally, all samples were evaluated via flow cytometry (FACS Calibur, BD, San Jose, CA, United States). The results obtained were analyzed using the FlowJo software, and the apoptotic rate was calculated.

[3] = tested on: colon cancer cells Caco-2; test: MTT antiproliferative assay, Caco-2; type: cell-based, human; conditions: for IC50: Homo sapiens, read-out: IC50 Caco2
Experimental: as §1, §2

[4] = Solubility in water by HPLC; type: physicochemical; conditions: 25°C, mass of solute dissolved at saturation in 100 g of solvent
Experimental: The solubility of the synthesized compounds in water was determined using high performance liquid chromatography (HPLC). First, 1.000 g of each compound was accurately weighed, placed in 100 g of water, and stirred at 25°C for a period of time. Then, the reaction system was allowed to stand for 1 h. The supernatant was quantitatively taken, diluted with methanol to volume, and centrifuged, and the solubility was determined using HPLC.

Caco-2 cells [5] = test: Cell cycle analysis (flow cytometry); type: cell-based, human; conditions: 4, 8, 16 μM, 24 h
Experimental: Caco-2 cells treated with CA8 at dose of 4, 8, or 16 μM/L for 24 h, they were collected, washed with PBS, and fixed in 70% ethanol overnight. The fixed cells were washed twice with PBS, treated with RNase A (10 mg/mL) and resuspended in 50 μg/mL propidium iodide for staining. Finally, the cell cycle distribution was assessed via flow cytometry (BD Biosciences, CA).

Caco-2 xenograft tumors = test: In vivo anticancer activity, Caco-2 xenograft; conditions: Caco-2 xenograft; CA8 100 mg/kg, CU 100 mg/kg, tegafur 50 mg/kg, gavage every other day
Experimental: Twenty 5-week-old male BALB nude mice purchased from SPF (Beijing) Biotechnology Co., Ltd. were used for the in vivo pharmacodynamic experiment of CA8. Caco-2 cells (6 × 10^6 cells in 100 μL PBS) were harvested and subcutaneously injected into the right hip of the mice. Then, they were divided into four groups when the tumor volume reached 100 mm^3 and treated with saline, CU (100 mg/kg), tegafur (50 mg/kg), or CA8 (100 mg/kg) via gavage every other day. Tumor size and body weight were measured and recorded every other day. At the end of the experiment, the mice were sacrificed and tumors were harvested and weighed. Tumor volumes were calculated by measuring length (L) and width (W) according to the following formula: V = 0.5 × L × W^2. The tumor tissue was embedded in paraffin, cut into slices, stained with HE, and observed under a light microscope.

Caco-2 cells [6] = test: Clonogenic assay; type: cell-based, human; conditions: 4, 8, or 16 μM/L, 6 h exposure
Experimental: Caco-2 cells were seeded into a 6-well plate at a density of 1 × 10^3 cells per well and incubated overnight. Then, the medium was replaced, and CA8 was added at the prescribed concentrations (4, 8, or 16 μM/L). After 6 h, the drug-containing medium was replaced with RPMI 1640 medium.
Caco-2 cells in 6-well plates were incubated for 1–2 weeks until the appearance of the colonies, followed by staining with crystal violet and incubation for 1 h at room temperature. After staining, images were captured accordingly.

[7] = tested on: cervical cancer cells HeLa; test: MTT antiproliferative assay, HeLa; type: cell-based; conditions: Homo sapiens
Experimental: as §1, §2

[8] = tested on: AKT, JNK, and NF-κB signaling pathways and apoptosis-related proteins; test: Western blot of signaling and apoptosis proteins in Caco-2 cells; type: cell-based, human; conditions: Caco-2, 4, 8, 16 μM, 24 h, vs control
Experimental: The expression of apoptotic proteins and pathways was detected using western blot. Caco-2 cells treated with CA8 at a dose of 4, 8, or 16 μM/L for 24 h were collected and lysed with RIPA lysis buffer for 10 min. The concentration of total proteins was determined using a BCA protein quantitative kit. Total proteins were separated on an SDS-PAGE gel, transferred to PVDF membranes and incubated with 5% skim milk for 2 h. Subsequently, the PVDF membranes were incubated with primary antibodies (AKT 1:2000; Bcl-2 1:2000; Bax 1:5000; caspase-3 1:2,000; caspase-9 1:1000; P-AKT 1:1000; JNK 1:1000; P-JNK 1:1000; IKBα 1:2000; and β-actin 1:100000) at 4°C overnight. The membranes were rinsed three times with TBST and incubated with secondary antibodies (1:5000 dilution) for 2–3 h at room temperature. Finally, proteins were visualized using an ECL chemiluminescent kit (KF001, affinity). In the final step, the ImageJ software was used to analyze the results.

lung cancer cells A549 = test: MTT antiproliferative assay, A549; type: cell-based; conditions: Homo sapiens
Experimental: as §1, §2

liver cancer cells HepG2 = test: MTT antiproliferative assay, HepG2; type: cell-based; conditions: Homo sapiens
Experimental: as §1, §2

[9] = tested on: normal human liver cell line LO2; test: MTT assay, normal liver cells LO2; type: cell-based
Experimental: as §1, §2

[10] = Pharmacokinetics evaluation after gavage; type: in vivo, Sprague Dawley (SD) rats; conditions: SD rats
Experimental: After the evaluation of the safety of CA8, 10 male Sprague Dawley (SD) rats were randomly divided into the CA8 and CU groups for the pharmacokinetic test ([Ye et al., 2020]). The rats were subjected to 1 week of adaptation and were fasted for 6 h before the experiment. CA8 (50 mg kg^−1) and CU (50 mg kg^−1) were administered via gavage. Blood samples were collected at 0.03, 0.08, 0.16, 0.25, 0.5, 1, 2, 4, 8 and 12 h and centrifuged at 5,000 rpm for 3 min to obtain the plasma. A mixture of ethyl acetate and methanol was then added to precipitate the proteins and separate the CA8 and CU from the plasma. The samples were then analyzed using HPLC.

[11] = parameters: method as in Al-Hujaily et al., 2011; conditions: ref Al-Hujaily et al., 2011; cited from earlier work

- IC50 ([1]; MCF7, 24 h): 40 ± 2.7 µM
- IC50 ([1]; MCF7, 48 h): 22.3 ± 1.6 µM
- IC50 ([3]; Caco-2, 24 h): > 60 µM
- IC50 ([3]; Caco-2, 48 h): 33 ± 2.1 µM
- Solubility [4]: 0.00017 mg/100g
- IC50 ([7]; 24 h): 58.3 ± 2.2 µM
- IC50 ([7]; 48 h): 17.3 ± 0.8 µM
- IC50 (lung cancer cells A549; A549, 24 h): 37.2 ± 2.9 µM
- IC50 (lung cancer cells A549; A549, 48 h): 34.4 ± 1.5 µM
- IC50 (liver cancer cells HepG2; HepG2, 24 h): 43.4 ± 2.9 µM
- IC50 (liver cancer cells HepG2; HepG2, 48 h): 27.4 ± 0.3 µM
- time after dosing until cleared from / still detected in plasma ([10]; oral 50 mg kg^−1): 2 h
- AUC(0-t) ([10]; oral (gavage) 50 mg kg^−1): 35,697.63 μg/L*min
- CLz ([10]; oral (gavage) 50 mg kg^−1): 900 mL/min/kg
- Tmax ([10]; oral (gavage) 50 mg kg^−1): 30.00 min
- Vz ([10]; oral (gavage) 50 mg kg^−1): 97.58 L/kg
- Cmax ([10]; male, Sprague Dawley, rat, plasma, oral (gavage) 50 mg kg^−1): 380 ng/mL
- MRT last ([10]; male, Sprague Dawley, rat, plasma, oral (gavage) 50 mg kg^−1, read-out: MRT(0-t) (converted)): 54 min
- half-life ([10]; male, Sprague Dawley, rat, plasma, oral (gavage) 50 mg kg^−1, read-out: t1/2z): 74.8 min
SMILES: COc1cc(/C=C/C(=O)CC(=O)/C=C/c2ccc(O)c(OC)c2)ccc1O [CU, Curcumin]
- induction of apoptosis (Caco-2 cells [2]): induced early and late apoptosis in a concentration-dependent manner
- SI Caco2 ([3]; 48 h, logarithm of ratio IC50 LO2 / IC50 cancer cells): −0.08
- cell cycle arrest (Caco-2 cells [5]): induced S-phase arrest only to a lesser extent
- inhibitory effect on tumor growth (Caco-2 xenograft tumors): CA8 > tegafur > CU
- Caco-2 colony formation (Caco-2 cells [6]): did not have a significant inhibitory effect
- expression of P-AKT [8]: inhibited the expression of P-AKT
- expression of P-JNK and IκBα [8]: induced the expression of P-JNK and IκBα in a concentration-dependent manner
- IC50 ([9]; 24 h): > 60 µM
- IC50 ([9]; 48 h): 27.6 ± 1.36 µM

SMILES: COc1cc(C=C2CN(C)CC(=Cc3ccc(O)c(OC)c3)C2=O)ccc1O [PAC]
- solubility in water, times that of CU [11]: 27 times
